US20080213363A1, “Methods and compositions for delivering 5-HT3 antagonists across the oral mucosa” (priority 2003, published 2008)
Where two headings read alike, the source gives them in different places.

Format: in vitro ADME
Conditions: PAMPA
Excerpt: Topics Med. Chem. 2001, 1, 277-351.

Papp (pH 5.4): 0.32 ×10⁻⁶ cm/s
Papp (pH 7.4): 1.3 ×10⁻⁶ cm/s
Papp (pH 8.5): 3.25 ×10⁻⁶ cm/s
SMILES: Cc1nccn1CC1CCc2c(c3ccccc3n2C)C1=O.Cl (stereo not drawn) [Ondansetron HCl, ondansetron HCl]
